Assay results reported in patent US8580762B2, “Substituted purine and 7-deazapurine compounds” (Epizyme, Inc., priority 2010, dated 2013).
Like-named read-outs stand apart in the source and are kept apart here.

Molecular target: DOT1L(1-416) (Homo sapiens, UniProt Q8TEK3)
Test: Determination of IC50: DOT1L(1-416) methyltransferase assay, 3H-SAM, oligonucleosome substrate, Flashplate
Type: biochemical
How it was run: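 Compounds in 10-point 3-fold DMSO dilutions were tested in reactions started with substrate mix of 200 nM [3H]-SAM, 600 nM unlabeled SAM and 20 nM oligonucleosome. Reactions ran 120 min at room temperature and were quenched with 100 μM SAM. Labeled substrate was captured on streptavidin Flashplates and counted by scintillation to give IC50.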

[1] = class symbols, read-out: DOT1L IC50

Chain of DOT1L(1-416) (Q8TEK3 1-416): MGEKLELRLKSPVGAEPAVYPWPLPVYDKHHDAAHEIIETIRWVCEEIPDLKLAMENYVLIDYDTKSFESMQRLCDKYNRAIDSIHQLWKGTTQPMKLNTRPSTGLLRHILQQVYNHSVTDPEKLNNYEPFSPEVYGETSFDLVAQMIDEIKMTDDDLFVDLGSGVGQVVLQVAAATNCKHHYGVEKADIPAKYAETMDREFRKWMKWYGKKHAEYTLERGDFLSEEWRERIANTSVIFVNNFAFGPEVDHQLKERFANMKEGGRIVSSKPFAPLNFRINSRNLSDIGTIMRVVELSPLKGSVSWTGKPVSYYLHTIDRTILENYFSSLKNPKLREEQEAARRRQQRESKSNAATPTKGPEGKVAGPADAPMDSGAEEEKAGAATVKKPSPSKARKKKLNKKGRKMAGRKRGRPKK

Row | SMILES | IC50 [1] [nM] | IC50 (DOT1L IC50, class symbols) [nM]
1 | CC(C)CN(C[C@H]1C[C@@H](n2ccc3c(N)ncnc32)[C@H](O)[C@@H]1O)[C@H]1C[C@H](CCc2nc3cc(C(C)(C)C)ccc3[nH]2)C1 [Compound 48, (1R,2S,3R,5R)-3-(4-amino-7H-pyrrolo[2,3-d]pyrimidin-7-yl)-5-((((1s,3R)-3-(2-(5-(tert-butyl)-1H-benzo[d]imidazol-2-yl)ethyl)cyclobutyl)(isobutyl)amino)methyl)cyclopentane-1,2-diol] | < 100 | –
2 | CN(C[C@H]1O[C@@H](n2cnc3c(N)ncnc32)[C@H](O)[C@@H]1O)C1CC(NC(=O)Nc2ccc(C(C)(C)C)cc2)C1 (stereo partly drawn) [Compound 8, 1-(3-((((2R,3S,4R,5R)-5-(6-amino-9H-purin-9-yl)-3,4-dihydroxytetrahydrofuran-2-yl)methyl)(methyl)amino)cyclobutyl)-3-(4-(tert-butyl)phenyl)urea] | 10000 to 50000 | –
3 | CC(C)(C)c1ccc2[nH]c(CC[C@H]3C[C@H](N(C[C@H]4O[C@@H](n5cnc6c(N)ncnc65)[C@H](O)[C@@H]4O)CC(F)(F)F)C3)nc2c1 [Compound 80, (2R,3R,4S,5R)-2-(6-amino-9H-purin-9-yl)-5-((((1s,3R)-3-(2-(5-(tert-butyl)-1H-benzo[d]imidazol-2-yl)ethyl)cyclobutyl) (2,2,2-trifluoroethyl)amino)methyl)tetrahydrofuran-3,4-diol] | 100 to 1000 | –
4 | CC(C)N(C[C@H]1O[C@@H](n2cnc3c(N)ncnc32)[C@H](O)[C@@H]1O)[C@H]1C[C@@H](CCc2nc3cc(C4CC4)ccc3[nH]2)C1 [Compound 116, (2R,3R,4S,5R)-2-(6-amino-9H-purin-9-yl)-5-((((1r,3S)-3-(2-(5-cyclopropyl-1H-benzo[d]imidazol-2-yl)ethyl)cyclobutyl) (isopropyl)amino)methyl)tetrahydrofuran-3,4-diol] | < 100 | –
5 | CN(C[C@H]1O[C@@H](n2cnc3c(N)ncnc32)[C@H](O)[C@@H]1O)[C@H]1C[C@@H](CCc2nc3cc(C(C)(C)C)ccc3[nH]2)C1 [Compound 71, (2R,3R,4S,512)-2-(6-amino-9H-purin-9-yl)-5-((((1r,3S)-3-(2-(5-(tert-butyl)-1H-benzo[d]imidazol-2-yl)ethyl)cyclobutyl)(methyl)amino)methyl)tetrahydrofuran-3,4-diol] | < 100 | –
6 | COCC(C)(C)c1ccc2[nH]c(CC[C@H]3C[C@@H](N(C[C@H]4O[C@@H](n5cnc6c(N)ncnc65)[C@H](O)[C@@H]4O)C(C)C)C3)nc2c1 [Compound 122, (2R,3R,4S,5R)-2-(6-amino-9H-purin-9-yl)-5-((isopropyl((1r,3S)-3-(2-(5-(1-methoxy-2-methylpropan-2-yl)-1H-benzo[d]imidazol-2-yl)ethyl)cyclobutyl)amino)methyl) tetrahydrofuran-3,4-diol] | < 100 | –
7 | CCN(C[C@H]1O[C@@H](n2cnc3c(N)ncnc32)[C@H](O)[C@@H]1O)[C@H]1C[C@@H](CCc2nc3cc(C(C)(C)C)ccc3[nH]2)C1 [Compound 73, (2R,3R,4S,5R)-2-(6-amino-9H-purin-9-yl)-5-((((1r,35)-3-(2-(5-(tert-butyl)-1H-benzo[d]imidazol-2-yl)ethyl)cyclobutyl)(ethyl)amino)methyl)tetrahydrofuran-3,4-diol] | < 100 | –
8 | CN(C[C@H]1C[C@@H](n2ccc3c(N)ncnc32)[C@H](O)[C@@H]1O)C1CC(CCc2nc3cc(C4COC4)ccc3[nH]2)C1 (stereo partly drawn) [Compound 62, (1R,2S,3R,5R)-3-(4-amino-7H-pyrrolo[2,3-d]pyrimidin-7-yl)-5-((methyl(3-(2-(5-(oxetan-3-yl)-1H-benzo[d]imidazol-2-yl)ethyl)cyclobutyl)amino)methyl)cyclopentane-1,2-diol] | 100 to 1000 | –
9 | CN(C[C@H]1O[C@@H](n2cnc3c(N)ncnc32)[C@H](O)[C@@H]1O)[C@H]1C[C@H](CCc2nc3cc(C4COC4)ccc3[nH]2)C1 [Compound 65, (2R,3R,4S,5R)-2-(6-amino-9H-purin-9-yl)-5-((methyl((1s,3R)-3-(2-(5-(oxetan-3-yl)-1H-benzo[d]imidazol-2-yl)ethyl)cyclobutyl)amino)methyl)tetrahydrofuran-3,4-diol] | 100 to 1000 | –
10 | CCN(C[C@H]1C[C@@H](n2ccc3c(N)ncnc32)[C@H](O)[C@@H]1O)C1CC(CCc2nc3cc(C(C)(C)C)ccc3[nH]2)C1 (stereo partly drawn) [Compound 25, (1R,2S,3R,5R)-3-(4-amino-7H-pyrrolo[2,3-d]pyrimidin-7-yl)-5-(((3-(2-(5-(tert-butyl)-1H-benzo[d]imidazol-2-yl)ethyl)cyclobutyl)(ethyl)amino)methyl)cyclopentane-1,2-diol] | < 100 | –
11 | CN(C[C@H]1C[C@@H](n2ccc3c(N)ncnc32)[C@H](O)[C@@H]1O)C1CC(CCc2nc3cc(Cl)c(Cl)cc3[nH]2)C1 (stereo partly drawn) [Compound 23, (1R,2S,3R,5R)-3-(4-amino-7H-pyrrolo[2,3-d]pyrimidin-7-yl)-5-(((3-(2-(5,6-dichloro-1H-benzo[d]imidazol-2-yl)ethyl)cyclobutyl)(methyl)amino)methyl)cyclopentane-1,2-diol] | < 100 | –
12 | CN(C[C@H]1C[C@@H](n2ccc3c(N)ncnc32)[C@H](O)[C@@H]1O)[C@H]1C[C@@H](CCc2nc3cc(Cl)c(Cl)cc3[nH]2)C1 [Compound 52, (1R,2S,3R,5R)-3-(4-amino-7H-pyrrolo[2,3-d]pyrimidin-7-yl)-5-((((1r,3S)-3-(2-(5,6-dichloro-1H-benzo[d]imidazol-2-yl)ethyl)cyclobutyl)(methyl)amino)methyl)cyclopentane-1,2-diol] | < 100 | –
13 | CC(C)[N+]([O-])(C[C@H]1O[C@@H](n2cnc3c(N)ncnc32)[C@H](O)[C@@H]1O)[C@H]1C[C@@H](CCc2nc3cc(C(C)(C)C)ccc3[nH]2)C1 (stereo partly drawn) [Compound 106, (1r,3S)-N-(((2R,3S,4R,5R)-5-(6-amino-9H-purin-9-yl)-3,4-dihydroxy-tetrahydrofuran-2-yl)methyl)-3-(2-(5-(tert-butyl)-1H-benzo[d]imidazol-2-yl)ethyl)-N-isopropyl-cyclobutanamine oxide] | – | < 100
14 | CN(C[C@H]1C[C@@H](n2ccc3c(N)ncnc32)[C@H](O)[C@@H]1O)[C@H]1C[C@@H](CCc2nc3cc(C(F)(F)F)ccc3[nH]2)C1 [Compound 10, (1R,2S,3R,5R)-3-(4-amino-7H-pyrrolo[2,3-d]pyrimidin-7-yl)-5-((methyl((1r,3S)-3-(2-(5-(trifluoromethyl)-1H-benzo[d]imidazol-2-yl)ethyl)cyclobutyl)amino)methyl)cyclopentane-1,2-diol] | < 100 | –
15 | CN(C[C@H]1O[C@@H](n2cnc3c(N)ncnc32)[C@H](O)[C@@H]1O)[C@H]1C[C@H](CCc2nc3cc(C4(C#N)CC4)ccc3[nH]2)C1 [Compound 138, 1-(2-(2-((1R,3s)-3-((((2R,3S,4R,5R)-5-(6-amino-9H-purin-9-yl)-3,4-dihydroxytetrahydro-furan-2-yl)methyl)(methyl)amino)cyclobutyl)ethyl)-1H-benzo[d]imidazol-5-yl)cyclo-propanecarbonitrile] | < 100 | –
16 | CC(C)(C)c1ccc2[nH]c(CC[C@H]3C[C@H](NC[C@H]4O[C@@H](n5cnc6c(N)ncnc65)[C@H](O)[C@@H]4O)C3)nc2c1 [Compound 99, (2R,3R,4S,5R)-2-(6-amino-9H-purin-9-yl)-5-((((1s,3R)-3-(2-(5-(tert-butyl)-1H-benzo[d]imidazol-2-yl)ethyl)cyclobutyl)amino)methyl) tetrahydrofuran-3,4-diol] | < 100 | –
17 | CC(C)N(C[C@@H]1C[C@@H](O)[C@H](n2ccc3c(N)ncnc32)C1)[C@H]1C[C@@H](CCc2nc3cc(C(C)(C)C)ccc3[nH]2)C1 [Compound 101, (1R,2R,4S)-2-(4-amino-7H-pyrrolo[2,3-d]pyrimidin-7-yl)-4-((((1r,3R)-3-(2-(5-(tert-butyl)-1H-benzo[d]imidazol-2-yl)ethyl)cyclobutyl) (isopropyl)amino)methyl)cyclopentanol] | 100 to 1000 | –
18 | CN(C[C@H]1O[C@@H](n2cnc3c(N)ncnc32)[C@H](O)[C@@H]1O)[C@H]1C[C@@H](CCc2nc3cc(C4COC4)ccc3[nH]2)C1 [Compound 63] | 100 to 1000 | –
19 | CN(C[C@H]1C[C@@H](n2ccc3c(N)ncnc32)[C@H](O)[C@@H]1O)[C@H]1C[C@@H](CCc2nc3cc(C4(C)CCC4)ccc3[nH]2)C1 [Compound 36, (1R,2S,3R,5R)-3-(4-amino-7H-pyrrolo[2,3-d]pyrimidin-7-yl)-5-((methyl((1r,3S)-3-(2-(5-(1-methylcyclobutyl)-1H-benzo[d]imidazol-2-yl)ethyl)cyclobutyl)amino)methyl)cyclopentane-1,2-diol] | < 100 | –
20 | CC(C)N(C[C@H]1O[C@@H](n2cnc3c(N)ncnc32)[C@H](O)[C@@H]1O)[C@H]1C[C@H](CCc2nc3cc(C4CC4)ccc3[nH]2)C1 [Compound 119, (2R,3R,4S,5R)-2-(6-amino-9H-purin-9-yl)-5-((((1s,3R)-3-(2-(5-cyclopropyl-1H-benzo[d]imidazol-2-yl)ethyl)cyclobutyl) (isopropyl)amino)methyl)tetrahydrofuran-3,4-diol] | < 100 | –
21 | CC(C)N(C[C@H]1O[C@@H](n2cnc3c(N)ncnc32)[C@H](O)[C@@H]1O)C1CC(CCc2nc3cc(C4CC4)ccc3[nH]2)C1 (stereo partly drawn) [Compound 112, (2R,3R,4S,5R)-2-(6-amino-9H-purin-9-yl)-5-(((3-(2-(5-cyclopropyl-1H-benzo[d]imidazol-2-yl)ethyl)cyclobutyl) (isopropyl)amino)methyl)tetrahydrofuran-3,4-diol] | < 100 | –
22 | CN(C[C@@H]1C[C@@H](O)[C@H](n2ccc3c(N)ncnc32)C1)[C@H]1C[C@@H](CCc2nc3cc(Cl)c(C(F)(F)F)cc3[nH]2)C1 [Compound 81, (1R,2R,4S)-2-(4-amino-7H-pyrrolo[2,3-d]pyrimidin-7-yl)-4-((((1r,3R)-3-(2-(5-chloro-6-(trifluoromethyl)-1H-benzo[d]imidazol-2-yl)ethyl)cyclobutyl) (methyl)amino)methyl) cyclopentanol] | 100 to 1000 | –
23 | CN(C[C@H]1O[C@@H](n2cnc3c(N)ncnc32)[C@H](O)[C@@H]1O)[C@H]1C[C@@H](CCc2nc3cc(C4CCC4)ccc3[nH]2)C1 [Compound 131, (2R,3R,4S,5R)-2-(6-amino-9H-purin-9-yl)-5-((((1r,3S)-3-(2-(5-cyclobutyl-1H-benzo[d]imidazol-2-yl)ethyl)cyclobutyl) (methyl)amino)methyl) tetrahydrofuran-3,4-diol] | < 100 | –
